In patent publication US9187471B2, “Pyrido [4,3-b] indole and pyrido [3,4-b] indole derivatives and methods of use” (Medivation Technologies, Inc., priority 2010, dated 2015):

How the values were obtained:
[1] = molecular target: T1, human recombinant dopamine D2L receptor (Homo sapiens, UniProt P14416); test: Dopamine D2L radioligand binding ([3H]Spiperone); conditions: read-out: Dopamine D2L (1 μM), percent inhibition of specific binding; compound at 1 μM; 0.16 nM [3H]Spiperone
T1 construct: expressed in transfected cells; host or cells: CHO
T1 sequence (P14416 whole entry): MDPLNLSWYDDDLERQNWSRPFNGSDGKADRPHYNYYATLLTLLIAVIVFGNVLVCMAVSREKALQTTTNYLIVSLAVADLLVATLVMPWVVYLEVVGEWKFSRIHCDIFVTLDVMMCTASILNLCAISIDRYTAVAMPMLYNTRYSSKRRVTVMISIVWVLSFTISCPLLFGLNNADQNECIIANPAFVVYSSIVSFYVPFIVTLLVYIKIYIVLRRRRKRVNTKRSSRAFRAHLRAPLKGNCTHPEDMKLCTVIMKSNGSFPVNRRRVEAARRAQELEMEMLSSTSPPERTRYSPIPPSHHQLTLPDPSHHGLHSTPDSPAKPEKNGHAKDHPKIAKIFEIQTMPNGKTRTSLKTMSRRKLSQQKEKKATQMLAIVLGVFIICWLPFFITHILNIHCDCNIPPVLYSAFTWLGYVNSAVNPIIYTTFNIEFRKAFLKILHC
Method: Non-specific binding was estimated in the presence of 10 μM Haloperidol. Receptor proteins were filtered and washed, the filters were then counted to determine [^3H]Spiperone specifically bound.

[2] = molecular target: T2, human recombinant adrenergic α2A receptor (Homo sapiens, UniProt P08913); test: Adrenergic α2A radioligand binding ([3H]MK-912); conditions: read-out: Adrenergic (0.1 μM) a2A, percent inhibition of specific binding; compound at 0.1 μM; 1 nM [3H]MK-912
T2 construct: expressed in transfected cells; host or cells: insect Sf9 cells
T2 sequence (P08913 1-465): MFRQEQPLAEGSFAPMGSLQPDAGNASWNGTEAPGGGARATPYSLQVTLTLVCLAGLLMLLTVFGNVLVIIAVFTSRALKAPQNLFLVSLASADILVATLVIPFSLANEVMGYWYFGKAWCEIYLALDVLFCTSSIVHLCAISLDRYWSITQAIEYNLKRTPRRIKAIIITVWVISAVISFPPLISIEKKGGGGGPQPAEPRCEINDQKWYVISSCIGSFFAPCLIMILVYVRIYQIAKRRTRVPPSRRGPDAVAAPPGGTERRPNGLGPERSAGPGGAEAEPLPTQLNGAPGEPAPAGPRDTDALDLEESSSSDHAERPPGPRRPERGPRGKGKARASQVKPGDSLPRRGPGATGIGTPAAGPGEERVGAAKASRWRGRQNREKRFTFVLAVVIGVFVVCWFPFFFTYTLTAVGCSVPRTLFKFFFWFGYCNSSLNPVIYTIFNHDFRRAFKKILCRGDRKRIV
Method: To evaluate in radioligand binding assays the activity of compounds of the invention, human recombinant adrenergic α2A receptor expressed in insect Sf9 cells (Uhlen, S. et al, J. Pharmacol. Exp. Ther. 271:1558, 1994) in a modified Tris-HCl buffer (50 mM Tris-HCl, pH 7.4, 12.5 mM MgCl2, 2 mM EDTA) was used. Compounds of invention were incubated with 1 nM [^3H]MK-912 for 60 min at 25° C. MK-912 is (2S-trans)-1,3,4,5′,6,6′,7,12b-octahydro-1′,3′-dimethyl-spiro[2H-benzofuro[2,3-a]quinolizine-2,4′(1′H)-pyrimidin]-2′(3′H)-one hydrochloride Non-specific binding was estimated in the presence of 10 μM WB-4101 (2-(2,6-Dimethoxyphenoxyethyl)aminomethyl-1,4-benzodioxane hydrochloride). Receptor proteins were filtered and washed, the filters were then counted to determine [^3H]MK-912 specifically bound. […] Compounds of the invention were tested in this biochemical assay and percent inhibition of specific binding was determined.

[3] = molecular target: T3, human recombinant serotonin (5-Hydroxytryptamine) 5-HT7 receptor (Homo sapiens, UniProt P34969); test: Serotonin 5-HT7 radioligand binding ([3H]LSD); conditions: compound at 0.1 μM; read-out: Inhibition of ligand binding, Serotonin 5-HT7 (percent inhibition of specific binding)
T3 construct: expressed in transfected cells; host or cells: CHO
T3 sequence (P34969 whole entry): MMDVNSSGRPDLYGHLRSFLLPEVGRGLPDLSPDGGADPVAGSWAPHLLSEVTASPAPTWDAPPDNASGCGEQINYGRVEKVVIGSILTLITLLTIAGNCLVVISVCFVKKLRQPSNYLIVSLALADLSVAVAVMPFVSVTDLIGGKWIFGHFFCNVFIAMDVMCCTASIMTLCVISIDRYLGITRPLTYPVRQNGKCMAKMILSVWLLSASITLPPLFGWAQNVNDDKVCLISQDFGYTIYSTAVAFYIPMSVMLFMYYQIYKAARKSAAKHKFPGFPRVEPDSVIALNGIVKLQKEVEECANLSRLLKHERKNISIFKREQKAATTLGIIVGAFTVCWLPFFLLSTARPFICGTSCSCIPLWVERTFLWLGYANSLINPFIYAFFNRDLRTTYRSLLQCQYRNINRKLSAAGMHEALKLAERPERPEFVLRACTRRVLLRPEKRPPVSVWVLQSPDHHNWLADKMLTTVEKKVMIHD
Method: Lysergic acid diethylamide (LSD) for 120 min. at 25° C. […] Receptor proteins were filtered and washed, the filters were then counted to determine [^3H]LSD specifically bound.

[4] = molecular target: T4, human recombinant histamine H1 receptor (Homo sapiens, UniProt P35367); test: Histamine H1 radioligand binding ([3H]Pyrilamine); conditions: read-out: Histamine H1 Binding (1 μM), percent inhibition of specific binding; compound at 1 μM; 1.2 nM [3H]Pyrilamine
T4 construct: expressed in transfected cells; host or cells: CHO-K1
T4 sequence (P35367 whole entry): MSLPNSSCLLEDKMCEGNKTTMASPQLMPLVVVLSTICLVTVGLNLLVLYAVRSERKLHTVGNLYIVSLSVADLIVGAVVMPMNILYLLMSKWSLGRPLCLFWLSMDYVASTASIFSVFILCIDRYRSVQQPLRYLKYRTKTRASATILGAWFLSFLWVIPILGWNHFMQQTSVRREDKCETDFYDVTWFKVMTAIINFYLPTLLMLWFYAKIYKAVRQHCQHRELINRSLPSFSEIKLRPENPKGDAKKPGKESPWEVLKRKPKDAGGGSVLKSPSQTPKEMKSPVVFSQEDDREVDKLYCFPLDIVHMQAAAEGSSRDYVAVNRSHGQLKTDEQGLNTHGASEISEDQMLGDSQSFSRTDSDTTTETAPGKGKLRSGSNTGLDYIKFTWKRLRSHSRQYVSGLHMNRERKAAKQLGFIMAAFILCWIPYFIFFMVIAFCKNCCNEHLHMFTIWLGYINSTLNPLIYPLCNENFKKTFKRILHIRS
Outline: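 Results expressed as percent inhibition of specific [3H]pyrilamine binding, counted on filters after washing. Receptor source: CHO-K1 cells expressing recombinant human H1, in modified Tris-HCl buffer (50 mM, pH 7.4; 2 mM MgCl2, 100 mM NaCl, 250 mM sucrose). 1 μM pyrilamine defined non-specific binding.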

[5] = molecular target: T5, human recombinant serotonin (5-Hydroxytryptamine) 5-HT6 receptor (Homo sapiens, UniProt P50406); test: Serotonin 5-HT6 radioligand binding ([3H]LSD); conditions: compound at 0.1 μM; read-out: Inhibition of ligand binding, Serotonin 5-HT6 (percent inhibition of specific binding)
T5 construct: expressed in transfected cells; host or cells: HeLa
T5 sequence (P50406 whole entry): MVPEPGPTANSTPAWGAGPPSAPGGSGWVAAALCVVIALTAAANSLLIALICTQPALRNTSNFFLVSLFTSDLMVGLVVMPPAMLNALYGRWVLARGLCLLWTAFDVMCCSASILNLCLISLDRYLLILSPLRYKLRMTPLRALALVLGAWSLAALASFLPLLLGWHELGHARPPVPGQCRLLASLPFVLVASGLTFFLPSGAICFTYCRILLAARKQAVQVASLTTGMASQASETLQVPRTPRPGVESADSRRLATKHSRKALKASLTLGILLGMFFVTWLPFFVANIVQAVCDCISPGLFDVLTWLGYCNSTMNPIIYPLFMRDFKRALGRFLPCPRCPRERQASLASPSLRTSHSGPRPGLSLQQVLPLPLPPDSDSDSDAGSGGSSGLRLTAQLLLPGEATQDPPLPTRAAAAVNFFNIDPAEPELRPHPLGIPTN
From the text: Receptor proteins were filtered and washed, the filters were then counted to determine [3H]LSD specifically bound.

[6] = molecular target: T6, Adrenergic α1B (Rattus norvegicus, UniProt P15823); test: Adrenergic α1B radioligand binding ([3H]Prazosin); conditions: read-out: Adrenergic (0.1 μM) a1B, percent inhibition of specific binding; compound at 0.1 μM; 0.25 nM [3H]Prazosin; Wistar Rat liver
T6 construct: rat adrenergic α1D receptor obtained from Wistar Rat liver; from tissue; host or cells: Wistar rat liver
T6 sequence (P15823 1-515): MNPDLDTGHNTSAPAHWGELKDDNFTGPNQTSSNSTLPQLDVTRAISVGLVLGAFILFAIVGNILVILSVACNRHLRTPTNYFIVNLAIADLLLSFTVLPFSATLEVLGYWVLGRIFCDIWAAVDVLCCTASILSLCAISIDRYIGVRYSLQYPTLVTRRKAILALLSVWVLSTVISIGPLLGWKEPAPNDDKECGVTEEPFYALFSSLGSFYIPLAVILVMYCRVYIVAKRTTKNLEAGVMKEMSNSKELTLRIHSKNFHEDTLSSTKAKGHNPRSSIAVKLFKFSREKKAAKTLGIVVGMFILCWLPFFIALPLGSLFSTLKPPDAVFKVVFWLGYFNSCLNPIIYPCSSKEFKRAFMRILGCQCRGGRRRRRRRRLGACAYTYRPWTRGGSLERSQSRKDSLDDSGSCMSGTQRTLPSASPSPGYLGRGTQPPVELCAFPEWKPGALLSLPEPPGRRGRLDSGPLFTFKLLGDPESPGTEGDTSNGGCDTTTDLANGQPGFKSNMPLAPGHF
Method: To evaluate in radioligand binding assays the activity of compounds of the invention, rat adrenergic α1D receptor obtained from Wistar Rat liver (Garcia-S'ainz, J. et al, Biochem. Biophys. Res. Commun. 186:760, 1992; Michel, A. et al, Br. J. Pharmacol. 98:883, 1989) in a modified Tris-HCl buffer (50 mM Tris-HCl buffer, pH 7.4, 0.5 mM EDTA) was used. Compounds of the invention were incubated with 0.25 nM [^3H]Prazosin for 60 min at 25° C. Non-specific binding was estimated in the presence of 10 μM phentolamine Receptor proteins were filtered and washed, the filters were then counted to determine [^3H]Prazosin specifically bound. […] Compounds of the invention were tested in this biochemical assay and percent inhibition of specific binding was determined.

SMILES | inhibition at 1 µM [1] [%] | inhibition at 0.1 µM [2] [%] | inhibition at 0.1 µM [3] [%] | inhibition at 1 µM [4] [%] | inhibition at 0.1 µM [5] [%] | inhibition at 0.1 µM [6] [%]
Cc1ccc2c(c1)c1c(n2-c2cscc2-c2ccc3cnccc3c2)CCN(C)C1 [Compound No. 68] | 9 | 90 | 99 | 30 | 18 | 
Cc1ccc2c(c1)c1c(n2-c2cscc2-c2ccc(C)s2)CCN(C)C1 [Compound No. 79] | 30 | 92 | 98 | 61 | 50 | 
Cc1ccc2c(c1)c1c(n2-c2ccccc2-c2ccc3c(ccn3C)c2)CCN(C)C1 [Compound No. 85, 2,8-dimethyl-5-(2-(1-methyl-1H-indol-5-yl)phenyl)-2,3,4,5-tetrahydro-1H-pyrido[4,3-b]indole] | 11 | 94 | 26 | 8 | 49 | 
Cc1ccc2c(c1)c1c(n2-c2cscc2-c2ccc3c(ccn3C)c2)CCN(C)C1 [Compound 33] | 19 | 100 | 94 | -7 | 60 | 52
Cc1csc(-c2cscc2-n2c3c(c4cc(C)ccc42)CN(C)CC3)c1 [Compound 50] | 36 | 93 | 97 | 54 | 36 | 
CNC(=O)c1cccc(-c2ccc(-n3c4c(c5cc(C)ccc53)CN(C)CC4)nc2)c1 [Compound No. 143, 3-(6-(2,8-dimethyl-3,4-dihydro-1H-pyrido[4,3-b]indol-5(2H)-yl)pyridin-3-yl)-N-methylbenzamide] | 19 | 44 | 11 | 8 | -8 | 83
Cc1ccc2c(c1)c1c(n2-c2cscc2-c2ccc(S(C)(=O)=O)cc2)CCN(C)C1 [Compound No. 76] | 11 | 90 | 85 | 19 | 14 | 
COc1ccc(-c2cscc2-n2c3c(c4cc(C)ccc42)CN(C)CC3)cc1 [Compound 37] | 18 | 94 | 100 | 6 | 24 | 
Cc1ccc2c(c1)c1c(n2-c2ccccc2-c2ccc(F)nc2)CCN(C)C1 [Compound No. 84, 5-(2-(6-fluoropyridin-3-yl)phenyl)-2,8-dimethyl-2,3,4,5-tetrahydro-1H-pyrido[4,3-b]indole] | 8 |  | 25 | 26 | 20 | 
CC(=O)Nc1ccc(-c2cccc(-n3c4c(c5cc(C)ccc53)CN(C)CC4)c2)cn1 [Compound 45, N-(5-(3-(2,8-dimethyl-3,4-dihydro-1H-pyrido[4,3-b]indol-5(2H)-yl)phenyl)pyridin-2-yl)acetamide] | 20 |  | 51 | 8 | 6 | 
Cc1ccc2c(c1)c1c(n2-c2ccc(-c3ccnn3C)cn2)CCN(C)C1 [Compound No. 146, 2,8-dimethyl-5-(5-(1-methyl-1H-pyrazol-5-yl)pyridin-2-yl)-2,3,4,5-tetrahydro-1H-pyrido[4,3-b]indole] | 5 |  | 16 | 8 | -17 | 
Cc1ccc2c(c1)c1c(n2-c2ccc3c(c2)CCN(C=O)C3)CCN(C)C1 [Compound No. 77, 6-(2,8-dimethyl-1,2,3,4-tetrahydro-pyrido[4,3-b]indol-5-yl)-3,4-dihydro-1H-isoquinoline-2-carbaldehyde] | 14 |  | 35 | 35 | 5 | 
Cc1ccc2c(c1)c1c(n2-c2cccc(-c3ccc(O)nc3)c2)CCN(C)C1 [Compound 52, 5-(3-(2,8-dimethyl-3,4-dihydro-1H-pyrido[4,3-b]indol-5(2H)-yl)phenyl)pyridin-2-ol] | 21 |  | 14 | 14 | 17 | 
Cc1ccc2c(c1)c1c(n2-c2cscc2-c2ccc(O)nc2)CCN(C)C1 [Compound 49] | 1 |  | 86 | 7 | 6 | 
Cc1csc(-c2ccccc2-n2c3c(c4cc(C)ccc42)CN(C)CC3)c1 [Compound 36] | 22 |  | 51 | 16 | 13 | 
CNC(=O)c1ccc(-c2cscc2-n2c3c(c4cc(C)ccc42)CN(C)CC3)cn1 [Compound No. 73] | 21 |  | 66 | 20 | 21 | 
Cc1ccc2c(c1)c1c(n2-c2ccccc2-c2ccc(C)s2)CCN(C)C1 [Compound No. 81, 2,8-dimethyl-5-(2-(5-methylthiophen-2-yl)phenyl)-2,3,4,5-tetrahydro-1H-pyrido[4,3-b]indole] | 19 |  | 72 | 57 | 44 | 
